From patent publication US20080124368A1, “Composition” (priority 2004, published 2008)

Test system: human immunodeficiency virus (HIV)
Assay: HIV viral assay (carried out by Imquest Bioscience)
Type: cell-based
Protocol: Antiviral compounds may be incorporated into polymers, such as hydrophilic polyurethanes or silicone, for certain applications where antiviral activities are needed.
The compound (0.5 gms) was protonated using dilute hydrochloric acid to a pH of 4 to a total volume of 30 ml. To 5 gms of this solution was added 5 gms of polyvinyl sulfonate (Aldrich, a 25 wt % aqueous solution). A white precipitate of the adduct immediately formed and remained colloidal without settling. This was used as such for an assay carried out by Imquest Bioscience, MD, and high dilutions were studied. […] These and other compounds could be incorporated into the polyurethane plastics of this invention for their slow delivery of antivirals; other viruses could be potentially also be deactivated.

c1c[nH]c(-c2ncc[nH]2)n1 [bimidazole, biimidazole]
antiviral efficacy (in words): potent antiviral
